From patent US20130224110A1, “USE OF ADENOSINE RECEPTOR SIGNALING TO MODULATE PERMEABILITY OF BLOOD-BRAIN BARRIER” (CORNELL UNIVERSITY, priority 2010, published 2013)

Tests used:
Bend.3 cells [1] = experiment: Tight junction molecule staining (ZO-1, Claudin-5, Occludin); format: cell-based, mouse; conditions: 1 μM, 1 h
Procedure: Bend.3 cells grown on collagen coated coverslips were incubated with DMSO vehicle, NECA (1 μM), or Lexiscan (1 μM) for 1 h. Cells were washed with PBS, fixed with 4% paraformaldehyde, and permeabilized with 0.5% Triton-X in PBS. Cells were blocked with PBS/BSA/goat serum and then stained with antibodies (Invitrogen) against either ZO-1 (1A12), Claudin-5 (34-1600), or Occludin (3F10). Following a wash step, cells were incubated with either goat anti-rabbit IgTexas Red-X or goat anti-mouse IgCy5 (Invitrogen). Cover slips were washed and mounted on slides with ProlongGold containing DAPI. Images were obtained on a Zeiss Axio Imager M1 fluorescent microscope.

blood brain barrier [2] = experiment: Evans Blue dye extravasation across the blood brain barrier in mice immunized for EAE; format: in vivo; conditions: WT EAE mice, 100 μl 0.01 nM on days 1, 3, 5, 7, 9; dye on day 10
Procedure: In order to determine if activation of adenosine receptors would induce extravazation of Evans Blue dye across the blood brain barrier (BBB), mice were first treated on day one with NECA, a non-selective adenosine receptor agonist (n=2, 100 μl 0.01 nM); and, PBS as a vehicle control (n=2, 100 μl). On day 2 mice were then immunized with CFA-MOG35-55 and pertussis to induce EAE. Then NECA or PBS was administered every other day on day 3, day 5, day 7 and day 9. On day 10, mice were injected intravenously with 200 μl 1% Evans Blue dye ([…] total dye injected). Six hours after administration of Evans Blue, mice were anesthetized with a ketamine/xylazine mix and perfused via the left ventricle with ice cold PBS. Brains were harvested and homogenized in n,n-dimethylformamide (DMF) at 5 μl/mg (v:w). Tissue was incubated for 72 hours at room temperature in DMF to extract the dye. Following extraction, the tissue/solvent mixture was centrifuged at 500×g for 30 minutes and 100 μl of supernatant was read on a BioTex spectrophotometer at 620 nm.

Bend.3 cells [3] = experiment: Transendothelial cell electrical resistance (TEER) assay; format: cell-based; conditions: mouse BEC monolayers, 1 μM, vs vehicle or media alone
Procedure: Bend.3 cells were grown in ATCC-formulated DMEM supplemented with 10% FBS on 24-well transwell inserts, 8 μm pore size (BD Falcon, Bedford, Mass.) until a monolayer was established. TEER was assessed using a Voltohmeter (EVOMX, World Precision Instruments, Sarasota, Fla.). Background resistance from un-seeded transwells was subtracted from recorded values to determine absolute TEER values. Change in absolute TEER from T0 for each individual transwell was expressed as percentage change and then averaged for each treatment group.

blood brain barrier [4] = experiment: Evans Blue dye extravasation across the blood brain barrier; format: in vivo, mice; conditions: single i.v. injection 100 μl 0.01 nM one hour before dye
Procedure: The objective of this experiment was to determine if the blood brain barrier could be modulated by activation of adenosine receptors. NECA is a non-selective adenosine receptor agonist, with similar affinities for A1, A2A and A3 adenosine receptors and a low affinity for the A2b adenosine receptor. In order to determine if activation of adenosine receptors would induce extravasation of Evans Blue dye across the blood brain barrier (BBB), mice were treated with: NECA, a non-selective adenosine receptor agonist (n=5, 100 μl 0.01 nM); SCH58261, an A2A adenosine receptor specific antagonist (n=5, 1 mg/kg); pertussis toxin, an agent known to induce BBB leakiness and as such used as a positive control (n=7, 200 μl); and, PBS as a vehicle control (n=5, 100 μl). CD73^−/− mice, which lack the ability to produce extracellular adenosine, were also treated with NECA (n=4, 100 μl 0.01 nM). Treatments were administered as a single i.v. injection one hour prior to i.v. injection of 200 μl 1% Evans Blue dye ([…] total dye injected). Four hours after administration of Evans Blue, mice were anesthetized with a ketamine/xylazine mix and perfused via the left ventricle with ice cold PBS. […] Following extraction, the tissue/solvent mixture was centrifuged at 500×g for 30 minutes and 100 μl of supernatant was read on a BioTex spectrophotometer at 620 nm. Data is expressed as μg Evans Blue/ml DMF.

blood brain barrier [5] = experiment: Entry of i.v. anti-β-amyloid antibody 6E10 into brain of transgenic AD (APP/PSEN) mice after NECA; format: in vivo; conditions: NECA i.v. 3 h before 6E10 i.v., brains collected after 90 min
Procedure: Wild type and transgenic (AD) mice were given 0.80 μg NECA (i.v.). After 3 h, 400 μg of antibody to β-amyloid (200 μl of 2 mg/ml; clone 6E10, Covance, Princeton, N.J.) was administered i.v. and the mice rested for 90 min. Mice were then anesthetized and perfused as described above and their brains were placed in OTC and flash-frozen for later sectioning. Sagital sections (6 μm) were fixed in acetone for 10 min, then washed in PBS. Sections were blocked with casein for 20 min then incubated with 1:50 dilution of goat anti-mouse IgCy5 (polyclonal, 1 mg/ml, Abcam, Cabridge, Mass.) for 20 min then washed 3 times in PBS. Sections were then dried and mounted with VectashieldHardset mounting media with DAPI (Vector Laboratories, Burlingame, Calif.). Images were obtained on a Zeiss Axio Imager M1 fluorescent microscope.
The most challenging therapeutic agents to get across the BBB are macromolecules such as antibodies, due to their enormous size (˜150 kDa). It was asked whether adenosine receptor modulation with NECA can facilitate the entry of antibodies into the CNS. To test this, a double [amyloid precursor protein (APP)/presenilin (PSEN)] transgenic mouse model of AD [strain B6.Cg-Tg(APPswe,PSEN1dE9)85Dbo/J] was used. […]

`CCNC(=O)[C@H]1O[C@@H](n2cnc3c(N)ncnc32)[C@H](O)[C@@H]1O` [NECA, 5′-N-ethylcarboxamido adenosine] was tested, and the “ZO-1 and claudin-5 expression” value (Bend.3 cells [1]) was “discreet alterations in ZO-1 and claudin-5”, the occludin expression (Bend.3 cells [1]) was “severely diminished occludin expression” and the “BBB permeability to Evans Blue dye” value (blood brain barrier [2]) was “increase in BBB permeability over PBS control EAE mice”. For the same compound, the TEER (Bend.3 cells [3]) was “decreases in TEER”, the “Evans Blue dye migration vs. PBS control” value (blood brain barrier [4]; CD73−/− mice) was “almost five fold increase” and the “Evans Blue dye migration vs. control” value (blood brain barrier [4]; WT mice) was “increase over control mice”. The “binding of i.v. injected 6E10 antibody to Aβ plaques in brain” value (blood brain barrier [5]) was “Binding of 6E10 antibody to Aβ plaques was observed throughout the brains”.
